# Test results taken from US20150224164A1, “TREATMENT OF AUTISM SPECTRUM DISORDERS USING GLYCYL-L-2-METHYLPROLYL-L-GLUMATIC ACID” (Neuren Pharmaceuticals Limited, priority 2013, published 2015).
# Where a SMILES comes first, the peptide text is derived from it.
# Experiments:
# 12-month old rats = assay: Morris water maze, spatial reference memory; type: in vivo, rat; settings: 0.96 or 4.8 mg/day s.c. mini-osmotic pump, vs saline
# Experimental: We used male Wistar rats 12, 8 or 4 months of age. The Morris water maze test was conducted using a black plastic pool filled to a depth of 25 cm with water colored black with a non-toxic dye. […] The platform remained in that position though the training. The experiment used extra-maze cues (i.e. objects in the room surrounding the pool) that the rats could use to navigate to the platform. Distinctive posters or paintings were hung on the walls. Furniture in the room was not moved during the testing period. The placement of the pool allowed the experimenter an easy access to it from all sides. The pool was emptied and refilled daily during testing, with water at 25° C.+/-2° C. Rats in each group were trained to swim to the submerged platform. The rats received six 60-second trials per day for four consecutive days. A trial began by placing the rat into the water facing the wall of the pool, at one of four start locations (north, south, east, west). The sequence of start locations was chosen pseudorandomly, so that the start location of any given trial was different from that of the previous trial, and no start location was used more than twice during daily training. […] The swim latency for each rat was recorded for each trial for each day of the acquisition and retention phases and changes between phases were examined using Analysis of Variance.
# [1] = system: Tbx1 heterozygous, Cntnap2 knockout, Slc9a6 knockout and fmr1 knockout mouse; assay: Genetic models of ASD: Tbx1, Cntnap2, Slc9a6, fmr1 mice (Example 17); type: in vivo; settings: 20 mg/kg/day i.p.
# Experimental: Animals in each of the above models are generated in accordance with the methodology described in the cited literature. Wild type equivalents are also obtained for each genetic model. Animals in each model are divided into three groups (n=10 to n=20): placebo treated wild type mice, mutant G-2-MePE-treated group and mutant placebo-treated control group. The treatments are administered intraperitoneally: placebo (saline) or 20 mg/kg/day of G-2-MePE.
# fmr1 knockout mice = assay: Contextual fear conditioning, fmr1 knockout mice; type: in vivo, mouse; settings: fmr1 KO; 100 mg/kg i.p. 28 days
# Experimental: G-2-MePE was administered at the dose of 100 mg/kg i.p. in 0.1 ml saline, once daily for 28 days. Vehicle-treated animals were injected with 0.1 ml saline daily for 28 days. Thereafter, drug or vehicle treatments were stopped and animals were tested on successive days until all tests were completed. Finally, the animals were sacrificed for determining expression of pAkt and pERK
# Contextual fear conditioning is the most basic of the conditioning (learning) procedures. It involves placing the animal in a novel environment (dark chamber), providing an aversive stimulus (a 1-sec electric shock at 0.2 mA to the paw), and then removing it. […] Freezing is a species-specific response to fear and is defined as absence of movement except for respiration.
# The clinical manifestation of Fragile X Syndrome is mental retardation in which learning and memory may be profoundly impaired. We tested G-2-MePE and vehicle treated fmr1 KO and wild-type animals in a fear-conditioning task in which we measured freezing behavior in response to context. […] Before the test, we observed the mice for their reactions to a 1-sec foot shock at 0.2 mA, and we noted vocalizations, jumping behavior, and excessive running in both genotypes as evidence that they had detected the stimulus.
smiles,measurement,setting,value
"C[C@@]1(C(=O)N[C@@H](CCC(=O)O)C(=O)O)CCCN1C(=O)CN [Example G-2-MePE, Glycyl-L-2-methylprolyl-L-glutamic acid] (HELM PEPTIDE1{G.[C[C@@]1(C(=O)[*:2])CCCN1[*:1]].E}$$$$V2.0)","memory: time needed to reach the platform, retention phase",12-month old rats,improved memory
same,measures associated with the ASD phenotype,[1],significantly improves all measures
same,"freezing behavior, contextual fear conditioning",fmr1 knockout mice,normalizes the deficit
